# Laboratory results taken from patent US20240228536A1, “PEPTIDES FOR USE IN SKIN AND HAIR PIGMENTATION” (Follicum AB, priority 2020, published 2024).
# Peptide text beside a SMILES is read from it.
# Experiments:
# [1] = Stability study, purity of FOL-005 by HPLC on storage; assay type: physicochemical
# Protocol: FOL-005 lyophilized powder was dissolved in phosphate/citrate buffer of pHs 5, 6, 7 or 7.6. Samples of each formulation were analysed for purity using high-pressure liquid chromatography after up to 3 months of storage at 25° C. respectively. In addition, an essentially water-free formulation of FOL-005 was stored at 25° C. and samples were analysed for purity after up to 12 months of storage.
# FOL-005/sucrose lyophilized powder was formulated to a suspension in dried or un-dried isopropyl myristate, paraffin oil/petrolatum, Sorbitan laurate and glyceryl behenate. Samples of each formulation were analysed for purity using high pressure liquid chromatography after up to 12 months of storage at 2-8, 25 and 30° C. respectively.
# [2] = Solubility of FOL-005 in propylene glycol; assay type: physicochemical; details: in propylene glycol at room temperature
# skin equivalents = test: Total melanin assay; assay type: cell-based, human; details: experiment 2, 10 mg/ml topical, day 20, n=4
# Protocol: The skin equivalents used in this study was from the same donors as in Example 2. The determination of the total melanin content of the skin equivalent was determined using a total melanin assay.
# The total melanin content of the SE was calculated by dissolving the SE in Soluene and reading the absorbance against a standard curve. The SEs were removed from culture on day 20 and washed with PBS. They were then transferred to a glass centrifuge tube and 500 μl Soluene added. The tubes were then covered with […]®, gently vortexed and placed on the Thermomixer at 50° C. for 1 hour. The tubes were then gently vortexed and 150 μl of the sample and synthetic melanin standards pipetted in triplicate into a glass 96 well plate. The absorbance was then measured at 490 nm on a Spectrophotometer. Results are presented in μg/ml against a standard curve. The change of melanin content is expressed as a percentage change versus vehicle control samples. An ANOVA (with Dunnett's post-test) was used for the statistical analysis.
# Three experiments were conducted, and the same donors were used as in Example 2. The sample sizes were as follows: experiment 1 n=2, experiment 2 n=4 and experiment 3 n=7. Peptides 1 (SEQ ID NO: 2), 3 (SEQ ID NO: 3) and 4 (SEQ ID NO: 4) were tested.
# skin equivalents (SEs) = test: H&E and Warthin Starry staining of skin equivalents; assay type: cell-based, human; details: day 20
# Description: Two skin equivalents (SEs) were used from one donor.
# The analysis was achieved using the Warthin Starry assay using our recently published method (Joly-Tonetti et al 2016) and hematoxylin&eosin (H&E) staining.
# The SEs were stained with Warthin Starry stain to visualise and quantify the melanin in sections. The SEs were removed from culture on day 20 and washed in PBS. They were then flash frozen in liquid nitrogen and mounted in OCT for sectioning. 10 μm sections were cut using a cryostat, the sections collected on slides and fixed in Acetone for 10 mins. The OCT was removed from the section by washing in acidulated water for 20 mins. The slides were then incubated in 1% silver nitrate solution for 1 hour at 43° C. […] The slides were stained for 2 mins then the staining was stopped by running the slides under hot tap water. Slides were then mounted using Histomount. Brightfield images were captured using a Nikon Eclipse microscope. Image analysis of the melanin density in sections was performed using Image J and densitometric thresholding. Results are presented in pixel intensity units. For the hematoxylin&eosin (H&E) staining, the SEs were flash frozen, sectioned and fixed as above. The slides were then washed in dH2O to remove the OCT for 20 mins. Haematoxylin was filtered using filter paper into a Coplin jar. Further Coplin jars were also prepared containing the following: Tap Water, Scott's Tap Water, 0.25% Eosin, 50% Ethanol, 70% Ethanol, 90% Ethanol, Ethanol and Histoclear. The slides were then placed into Haematoxylin for 2 mins, and then placed into tap water for 30 secs, Scott's Tap Water for 1 min & Eosin for 2 mins. The slides were then dehydrated through the Ethanol (1 min each) then placed into Histoclear for 2 mins and mounted using Histomount. Brightfield images were captured using a Nikon Eclipse microscope.
# [3] = system: Pigmented skin equivalents (SEs), Melanoderms Mel-300-A (donor) and Mel-300-C-2 (donor); test: Skin equivalent culture, photographic assessment of pigmentation; assay type: cell-based, human
# Protocol: The skin equivalent surface area was 63.6 mm^2. Other equipment used included SMZ1000 Stereo Microscope (Nikon); UC30 Microscope Camera (Olympus); Phosphate-Buffered Saline (PBS); 6-well Tissue Culture Plates (Sarstedt); Image J software (https://imagej.nih.gov); Paintshop Photo Pro Software (Corel). The Melanoderms were prepared by carefully removing the agarose with sterile forceps and placing them in pre-warmed culture medium (37° C.) for an hour prior to treatment. The Melanoderms were then topically treated (without rubbing) with 25 μl of the various peptides, dissolved in dH2O at 10 mg/ml. […] The SEs were examined and removed from culture when skin darkening became visible. The pigmentation of the Melanoderms was macroscopically assessed by capturing high-resolution images using the Olympus microscope camera. […] They were then placed into a 6-well plate containing 1 ml PBS/well and images captured at ×8 magnification. The images were then processed using Image J & Paintshop Photo Pro software, to determine a quantifiable pixel area, which equated to the level of pigmentation present in the skin equivalent. The image brightness was normalised and the image gray-scaled using Paintshop Photo Pro, then Image J was used to threshold the image. The pigmentation was quantified by assessing total pixel area of pigmentation coverage in a fixed sample area. An ANOVA test (Dunnett's post-test) was used for the statistical analysis. Three different experiments were conducted. In the first, skin equivalents from both donors were included, and in experiment 2 and 3, only the […] donor was included. The SE of the […] donor from the first experiment received 5 treatments of 25 μl of peptide solution at 10 mg/ml; starting on the first day following receipt then on days 3, 5, 9 and 12. Peptides 1 (SEQ ID NO: 2), 3 (SEQ ID NO: 3) and 4 (SEQ ID NO: 4) were tested. The images were taken on Day 14. In experiment 2, peptide 3 and 4 were selected for testing to see if it had any efficacy in reducing melanin content or the distribution of melanin throughout the SE. This time, 5 SEs were used per treatment to improve statistical robustness. The experiment was continued for 20 days with treatments on days 0, 3, 7 and 12 and medium changes every other day. In experiment 3 a more highly pigmented SE ([…] donor melanocytes) was used and with an increased sample size with n=7 per treatment. […] Treatment was repeated on days 5, 9, 12 and 15 with medium changed every other day.
Molecule,degradation of FOL-005 ([1]; at various pH (buffers)),degradation of FOL-005 ([1]; water free conditions),solubility of FOL-005 [2],total melanin content of skin equivalents vs vehicle control (skin equivalents),melanin content and distribution in SE sections (Warthin Starry) (skin equivalents (SEs); one of the donors (FIG. 3A)),melanin content and distribution in SE sections (Warthin Starry) (skin equivalents (SEs); second donor (FIG. 3B-D)),"pigmentation of skin equivalents (photographic assessment) compared to vehicle control ([3]; experiment 1, donor, 5 topical treatments of 25 μl at 10 mg/ml in dH2O, images Day 14)","pigmentation of skin equivalents (photographic assessment) compared to vehicle control ([3]; experiment 2, donor, 10 mg/ml, 20 days, n=5)","pigmentation of skin equivalents (photographic assessment) compared to vehicle control ([3]; experiment 3, more highly pigmented SE (donor), 10 mg/ml, n=7)"
CC[C@H](C)[C@H](NC(=O)[C@H](CC(=O)O)NC(=O)CNC(=O)[C@H](CC(=O)O)NC(=O)[C@H](Cc1ccc(O)cc1)NC(=O)[C@@H](NC(=O)[C@H](CC(=O)O)NC(=O)[C@@H](N)C(C)C)[C@@H](C)O)C(=O)N[C@@H](CO)C(=O)N[C@H](C(=O)N[C@H](C(=O)N[C@@H](Cc1ccc(O)cc1)C(=O)NCC(=O)N[C@@H](CC(C)C)C(=O)N[C@@H](CCCNC(=N)N)C(=O)O)C(C)C)C(C)C [FOL-005] (H-VDTYDGDISVVYGLR-OH; N-terminus and C-terminus assumed),degraded,very limited,160 µg/mL,,,,,,
Ala-Ala-His-Met (AAHM; (1)..(4) Peptide 3),,,,no difference,reduction in melanin in the upper epidermal layers,did not appear to have any obvious effect,equivalent or slightly less pigmented than the vehicle control,slight decrease in pigmentation,little effect
